Legend:
Type in all cases: cell-based, human
Dermal fibroblasts = assay: BioMAP Diversity PLUS HDF3CGF system (wound healing and matrix/tissue remodeling); conditions: for decorin: human cell system mimicking wound healing, remodeling, fibrosis and chronic inflammation (FIG. 7); for Significant log10 reduction compared to nontreated controls: Macrophage colony-stimulating factor (M-CSF): HDF3CGF system
Procedure: (§1) This study examined activities of small molecules discovered in dolphin serum that had protective profiles against diseases of aging which can impact quality of life and longevity. These molecules were tested across 12 human primary cell-based systems as part of DiscoverX's BioMAP Diversity Plus program. These systems are designed to model complex human tissue and disease biology of the vasculature, skin, lung, and inflammatory tissues. Quantitative measurements of biomarker activities across this broad panel, along with comparative analysis of biological activities of known bioactive agents were used to predict and compare the efficacy and function of the four compounds. Compounds were tested at four concentrations (740 nm and 2.2, 6.7 and 20 μM).
(§2) BioMAP panels consist of human primary cell-based systems designed to model different aspects of the human body in an in vitro format. The 12 systems in the Diversity PLUS panel allow test agent characterization in an unbiased way across a broad set of systems modeling various human disease states. BioMAP systems are constructed with one or more primary cell types from healthy human donors, with stimuli (such as cytokines or growth factors) added to capture relevant signaling networks that naturally occur in human tissue or pathological conditions. Vascular biology is modeled in both a Th1 (3C system) and a Th2 (4H system) inflammatory environment, as well as in a Th1 inflammatory state specific to arterial smooth muscle cells (CASM3C system). Additional systems recapitulate aspects of the systemic immune response including monocyte-driven Th1 inflammation (LPS system) or T cell stimulation (SAg system), chronic Th1 inflammation driven by macrophage activation (lMphg system) and the T cell-dependent activation of B cells that occurs in germinal centers (BT system). The BE3C system (Th1) and the BF4T system (Th2) represent airway inflammation of the lung, while the MyoF system models myofibroblast-lung tissue remodeling. Lastly, skin biology is addressed in the KF3CT system modeling Th1 cutaneous inflammation and the HDF3CGF system modeling wound healing.
(§3) Each test agent generates a signature BioMAP profile that is created from the changes in protein biomarker readouts within individual system environments. Biomarker readouts (7-17 per system) are selected for therapeutic and biological relevance, are predictive for disease outcomes or specific drug effects and are validated using agents with known mechanism of action (MoA). Each readout is measured quantitatively by immune-based methods that detect protein (e.g., ELISA) or functional assays that measure proliferation and viability. BioMAP readouts are diverse and include cell surface receptors, cytokines, chemokines, matrix molecules and enzymes.
(§4) The Diversity PLUS panel allows test agent characterization in an unbiased way across a broad set of systems modeling various human disease states. These systems are designed to model complex human tissue and disease biology of the vasculature, skin, lung, and inflammatory tissues.
(§5) BioMAP systems are constructed with one or more primary cell types from healthy human donors, with stimuli (such as cytokines or growth factors) added to capture relevant signaling networks that naturally occur in human tissue or pathological conditions. Vascular biology is modeled in both a Th1 (3C system) and a Th2 (4H system) inflammatory environment, as well as in a Th1 inflammatory state specific to arterial smooth muscle cells (CASM3C system). Additional systems recapitulate aspects of the systemic immune response including monocyte-driven Th1 inflammation (LPS system) or T cell stimulation (SAg system), chronic Th1 inflammation driven by macrophage activation (lMphg system) and the T cell-dependent activation of B cells that occurs in germinal centers (BT system).

[1] = system: Venular endothelial cells, peripheral blood mononuclear cells; assay: BioMAP Diversity PLUS SAg system (T cell stimulation, Th1 type chronic inflammation); conditions: for T cell proliferation: concentrations ranging from 740 nm to 6.7 μM (FIG. 2); for Significant log10 reduction compared to nontreated controls: T cell proliferation / Significant log10 reduction compared to nontreated controls: CD40: SAg system
Procedure: as §1, §2
as §3, with “enzymes. In total, the Diversity PLUS panel contains 148 biomarker readouts that capture biological changes that occur within the physiological context of the particular BioMAP system. Specific BioMAP activities have been correlated to in vivo biology, and multiparameter BioMAP profiles have been used to distinguish compounds based on MoA and target selectivity across diverse physiological systems.” for “enzymes.”
(§6) The Diversity PLUS panel allows test agent characterization in an unbiased way across a broad set of systems modeling various human disease states. These systems are designed to model complex human tissue and disease biology of the vasculature, skin, lung, and inflammatory tissues. Quantitative measurements of 148 biomarker activities across this broad panel, along with comparative analysis of biological activities from known bioactive agents, were used to predict and compare the efficacy and function of each selected compound at four concentrations (740 nm and 2.2, 6.7 and 20 μM). […]

[2] = system: Peripheral blood mononuclear cells, B cells; assay: BioMAP Diversity PLUS BT system (T cell dependent B cell activation); conditions: for interleukin 17A (IL-17A): human cell system mimicking asthma, autoimmunity and allergies (FIG. 5)
Procedure: as §1, §2, §3, §4, §5

[3] = system: Venular endothelial cells, peripheral blood mononuclear cells; assay: BioMAP Diversity PLUS LPS system (Th1 type chronic inflammation, monocyte activation); conditions: for secretion of prostaglandin E2 (PGE2): human cell system mimicking T-cell and monocyte driven chronic inflammation and cardiovascular diseases (FIG. 4)
Procedure: as §1, §2, §3, §4, §5

Lung fibroblasts = assay: BioMAP Diversity PLUS MyoF system (myofibroblast differentiation and tissue remodeling)
Procedure: as §1, §2
as §3, with “enzymes. In total, the Diversity PLUS panel contains 148 biomarker readouts that capture biological changes that occur within the physiological context of the particular BioMAP system. Specific BioMAP activities have been correlated to in vivo biology, and multiparameter BioMAP profiles have been used to distinguish compounds based on MoA and target selectivity across diverse physiological systems.” for “enzymes.”
as §6

[4] = system: Bronchial epithelial cells; assay: BioMAP Diversity PLUS BE3C system (Th1 type lung inflammation)
Procedure: as §1, §2
as §3, with “enzymes. In total, the Diversity PLUS panel contains 148 biomarker readouts that capture biological changes that occur within the physiological context of the particular BioMAP system. Specific BioMAP activities have been correlated to in vivo biology, and multiparameter BioMAP profiles have been used to distinguish compounds based on MoA and target selectivity across diverse physiological systems.” for “enzymes.”
as §6

[5] = system: Macrophages, venular endothelial cells; assay: BioMAP Diversity PLUS lMphg system (Th1 type chronic inflammation, macrophage activation); conditions: /Mphg system; 20.0 μM
Procedure: as §1, §2
as §3, with “enzymes. In total, the Diversity PLUS panel contains 148 biomarker readouts that capture biological changes that occur within the physiological context of the particular BioMAP system. Specific BioMAP activities have been correlated to in vivo biology, and multiparameter BioMAP profiles have been used to distinguish compounds based on MoA and target selectivity across diverse physiological systems.” for “enzymes.”
as §6

[6] = human cell system mimicking T-cell driven chronic inflammation and autoimmune diseases

O=C(O)[C@@H]1C[C@@H](O)CN1 (relative stereo) [Trans-4-hydroxyproline]
decorin (Dermal fibroblasts): inhibitory activity
T cell proliferation [1, 6]: decreased
interleukin 17A (IL-17A) [2]: lowered

O=C(O)Cc1c[nH]cn1 [4-imidazoleacetate]
Significant log10 reduction compared to nontreated controls: T cell proliferation ([1]; 2.2 μM): −0.11 log10
Significant log10 reduction compared to nontreated controls: T cell proliferation ([1]; 6.7 μM): −0.09 log10
Significant log10 reduction compared to nontreated controls: T cell proliferation ([1]; 20.0 μM): −0.09 log10
T cell proliferation [1, 6]: decreased
Significant log10 reduction compared to nontreated controls: Secreted interleukin 17F (IL-17F) ([2]; BT system, 0.7 μM): −0.16 log10

NCCCCC(=O)O [5-aminovalerate]
Significant log10 reduction compared to nontreated controls: Secreted prostaglandin E2 (PGE2) ([3]; LPS system, 6.7 μM): −0.10 log10
secretion of prostaglandin E2 (PGE2) [3]: lowered
decorin (Dermal fibroblasts): inhibitory activity
Significant log10 reduction compared to nontreated controls: T cell proliferation ([1]; 0.7 μM): −0.7 log10
Significant log10 reduction compared to nontreated controls: T cell proliferation ([1]; 2.2 μM): −0.12 log10
Significant log10 reduction compared to nontreated controls: T cell proliferation ([1]; 6.7 μM): −0.14 log10
T cell proliferation [1, 6]: decreased
Significant log10 reduction compared to nontreated controls: Tumor necrosis factor alpha (TNFα) ([2]; BT system, 6.7 μM): −0.11 log10
Significant log10 reduction compared to nontreated controls: Decorin (Lung fibroblasts; 6.7 μM): −0.07 log10
Significant log10 reduction compared to nontreated controls: Decorin (Lung fibroblasts; 20.0 μM): −0.10 log10

C=CCCCCCCCCC(=O)O [10-undecanoate (C11:1n1), 10-undecanoate]
Significant log10 reduction compared to nontreated controls: Secreted prostaglandin E2 (PGE2) ([3]; LPS system, 0.7 μM): −0.11 log10
Significant log10 reduction compared to nontreated controls: Secreted prostaglandin E2 (PGE2) ([3]; LPS system, 2.2 μM): −0.08 log10
Significant log10 reduction compared to nontreated controls: Secreted prostaglandin E2 (PGE2) ([3]; LPS system, 6.7 μM): −0.20 log10
Significant log10 reduction compared to nontreated controls: CD40 ([3]; LPS system, 20.0 μM): −0.11 log10
secretion of prostaglandin E2 (PGE2) [3]: lowered
Significant log10 reduction compared to nontreated controls: Macrophage colony-stimulating factor (M-CSF) (Dermal fibroblasts; 0.7 μM): −0.11 log10
Significant log10 reduction compared to nontreated controls: Macrophage colony-stimulating factor (M-CSF) (Dermal fibroblasts; 2.2 μM): −0.07 log10
Significant log10 reduction compared to nontreated controls: Tissue plasminogen activator (tPA) ([4]; 2.2 μM): −0.08 log10
Significant log10 reduction compared to nontreated controls: Tissue plasminogen activator (tPA) ([4]; 6.7 μM): −0.11 log10
Significant log10 reduction compared to nontreated controls: Tissue plasminogen activator (tPA) ([4]; 20.0 μM): −0.12 log10
Significant log10 reduction compared to nontreated controls: CD40 ([1]; 0.7 μM): −0.07 log10
Significant log10 reduction compared to nontreated controls: CD40 ([1]; 2.2 μM): −0.14 log10
Significant log10 reduction compared to nontreated controls: CD40 ([1]; 6.7 μM): −0.09 log10
CD40 ([1]; human cell system mimicking T-cell driven chronic inflammation and autoimmune diseases, 740 nm, 2.2 μM, and 6.7 μM (FIG. 3)): lowered
T cell proliferation [1, 6]: decreased
Significant log10 reduction compared to nontreated controls: Secreted interleukin 10 (IL-10) [5]: −0.21 log10
Significant log10 reduction compared to nontreated controls: Secreted interleukin 17A (IL-17A) ([2]; BT system, 2.2 μM): −0.25 log10
Significant log10 reduction compared to nontreated controls: Secreted interleukin 17A (IL-17A) ([2]; BT system, 20.0 μM): −0.20 log10
Significant log10 reduction compared to nontreated controls: Secreted tumor necrosis factor alpha (TNFα) ([2]; BT system, 20.0 μM): −0.12 log10
interleukin 17A (IL-17A) [2]: lowered
